Experiments:
[1] = biological target: T1, wild type AXL (wtAXL) receptor tyrosine kinase (Homo sapiens, UniProt P30530); assay: NIH-3T3-AXL cellular tyrosine kinase assay (inhibition of AXL phosphorylation); assay type: cell-based; details: AXL phosphorylation in NIH-3T3-AXL (clone 22) cells, serum-depleted, 2 h with compound, immunoprecipitation / anti-phosphotyrosine blot
T1 construct: WtAXL cDNA was cloned into vector pLXSN(ESK) and transfected into Phoenix E packaging cells; expressed in transfected cells; host or cells: NIH3T3 N7 mouse fibroblasts, retrovirally infected (clone 22)
T1 sequence (P30530 26-894): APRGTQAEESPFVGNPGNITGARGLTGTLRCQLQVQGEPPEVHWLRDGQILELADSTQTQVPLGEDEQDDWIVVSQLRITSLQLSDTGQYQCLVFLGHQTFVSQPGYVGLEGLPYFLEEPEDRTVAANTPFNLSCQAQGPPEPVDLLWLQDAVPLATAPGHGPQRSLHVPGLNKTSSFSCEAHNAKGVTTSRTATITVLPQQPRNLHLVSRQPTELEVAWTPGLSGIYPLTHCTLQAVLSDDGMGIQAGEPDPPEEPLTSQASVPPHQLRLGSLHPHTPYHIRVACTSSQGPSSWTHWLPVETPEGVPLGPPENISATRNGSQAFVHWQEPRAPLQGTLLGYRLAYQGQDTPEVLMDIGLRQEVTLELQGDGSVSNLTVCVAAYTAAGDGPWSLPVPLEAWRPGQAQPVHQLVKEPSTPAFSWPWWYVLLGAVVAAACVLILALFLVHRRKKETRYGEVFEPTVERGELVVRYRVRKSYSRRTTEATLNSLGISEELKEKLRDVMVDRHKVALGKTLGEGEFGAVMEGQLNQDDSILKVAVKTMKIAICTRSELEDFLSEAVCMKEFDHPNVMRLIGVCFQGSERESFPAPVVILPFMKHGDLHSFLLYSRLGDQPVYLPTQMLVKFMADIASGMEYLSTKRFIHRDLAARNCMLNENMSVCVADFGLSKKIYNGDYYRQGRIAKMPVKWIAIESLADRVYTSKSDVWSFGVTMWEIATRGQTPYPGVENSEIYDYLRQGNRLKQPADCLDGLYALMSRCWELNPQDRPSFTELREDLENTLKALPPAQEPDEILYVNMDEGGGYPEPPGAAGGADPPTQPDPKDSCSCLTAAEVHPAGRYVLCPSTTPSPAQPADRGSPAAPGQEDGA
Description: 3) Inhibitory Activity of Compounds on Axl Phosphorylation in NIH-3T3-AXL Cellular Tyrosine Kinase Assay
The viral supernatant was collected and used to infect target cells NIH3T3 N7. Monoclonal NIH3T3-AXL cell lines stably expressing wtAXL were generated by selecting retrovirally infected cells in medium containing puromycin (2 μg/ml) and subsequent clonal separation.
NIH-3T3-AXL Cellular Kinase Assay
Serial dilutions of compounds were added, and the cells were further incubated or 2 h. […] The clarified cell lysate (10 min at 13000 rpm at 4° C.) were used for immunoprecipitation. Equal amounts of protein were mixed with 2 μg anti-AXL polyclonal antibody (homemade) and 20 μl Protein A sepharose beads, and rotated for 6 hr at 4° C. After immunoprecipitation, the beads were washed three times with 1×HNTG (50 mM HEPES (pH 7.5), 150 mM NaCl, 10% Glycerol, 0.2% Triton X-100). The final pellet was suspended in 20 μl 2× Laemmli buffer, and boiled for 5 min at 100° C. […] The membrane was then incubated with anti-phosphotyrosine antibody (4G10) overnight at 4° C. followed by washing with 1×TBST buffer three times. After incubating membrane with HRP-conjugated anti-mouse secondary antibody for 1 hour at room temperature followed by washing with 1×TBST buffer three times, the proteins were visualized by ECL.

| IC50 [1] | melting point | Structure (SMILES) |
| --- | --- | --- |
| 6000 nM | 214 to 216 °C | COc1cc2nccc(Oc3ccc(NS(=O)(=O)c4cccs4)c(F)c3)c2cc1OC [Example A4] |
| > 3000 nM | > 260 °C | COc1cc2nccc(Oc3ccc(NS(=O)(=O)c4cc(Cl)c(O)c(Cl)c4)cc3)c2cc1OC [Example A155, 3,5-Dichloro-N-[4-(6,7-dimethoxy-quinolin-4-yloxy)-phenyl]-4-hydroxy-benzenesulfonamide] |
| 1500 nM | 242 to 244 °C | COc1cc2nccc(Oc3ccc(NS(=O)(=O)c4ccc(Br)cc4C(F)(F)F)c(F)c3)c2cc1OC [Example A48, 4-Bromo-N-[4-(6,7-dimethoxy-quinolin-4-yloxy)-2-fluoro-phenyl]-2-trifluoromethyl-benzenesulfonamide] |
| > 1000 nM | 238 to 240 °C | COc1cc2nccc(Oc3ccc(NS(=O)(=O)c4cc(C)c(C)cc4OC)c(F)c3)c2cc1OC [Example A64, N-[4-(6,7-Dimethoxy-quinolin-4-yloxy)-2-fluoro-phenyl]-2-methoxy-4,5-dimethyl-benzenesulfonamide] |
| 2380 nM | 250 to 251 °C | COc1cc2nccc(Oc3ccc(NS(=O)(=O)c4cccc(Cl)c4)c(F)c3)c2cc1OC [Example A25, 3-Chloro-N-[4-(6,7-dimethoxy-quinolin-4-yloxy)-2-fluoro-phenyl]-benzenesulfonamide] |
| 2540 nM | 224 to 225 °C | COc1cccc(S(=O)(=O)Nc2ccc(Oc3ccnc4cc(OC)c(OC)cc34)cc2F)c1 [Example A27, N-[4-(6,7-Dimethoxy-quinolin-4-yloxy)-2-fluoro-phenyl]-3-methoxy-benzenesulfonamide] |
| 7000 nM | 203 to 205 °C | Cc1cc(Oc2ccc(NS(=O)(=O)c3cc(Cl)cc(Cl)c3O)cc2)c2cc(F)ccc2n1 [Example B22, 3,5-Dichloro-N-[4-(6-fluoro-2-methyl-quinolin-4-yloxy)-phenyl]-2-hydroxy-benzenesulfonamide] |
| > 10000 nM | 207 to 209 °C | Cc1cc(Oc2ccc(NS(=O)(=O)c3cc(Cl)ccc3Cl)c(F)c2)c2cccc(C(F)(F)F)c2n1 [Example C05, 2,5-Dichloro-N-[2-fluoro-4-(2-methyl-8-trifluoromethyl-quinolin-4-yloxy)-phenyl]-benzenesulfonamid] |
| < 1000 nM | 193 to 195 °C | COc1cc2nccc(Oc3ccc(NS(=O)(=O)c4cc(Cl)cc(Cl)c4OC)c(F)c3)c2cc1OC [Example A50, 3,5-Dichloro-N-[4-(6,7-dimethoxy-quinolin-4-yloxy)-2-fluoro-phenyl]-2-methoxy-benzenesulfonamide] |
| 2300 nM | 207 to 209 °C | COc1cc2nccc(Oc3ccc(NS(=O)(=O)c4ccc(Br)s4)c(F)c3)c2cc1OC [Example A29, 5-Bromo-thiophene-2-sulfonic acid [4-(6,7-dimethoxy-quinolin-4-yloxy)-2-fluoro-phenyl]-amide] |
| 151 nM | 184 to 186 °C | COc1cc2c(Oc3ccc(NS(=O)(=O)c4ccccc4Br)cc3F)ccnc2cc1OCCCN1CCC(C)CC1 [Example D18, 2-Bromo-N-(3-fluoro-4-{6-methoxy-7-[3-(4-methyl-piperidin-1-yl)-propoxy]-quinolin-4-yloxy}-phenyl)-benzenesulfonamide] |
| > 1000 nM | 193 to 195 °C | CCc1ccc(S(=O)(=O)Nc2ccc(Oc3ccnc4cc(OC)c(OC)cc34)cc2F)cc1 [Example A56, N-[4-(6,7-Dimethoxy-quinolin-4-yloxy)-2-fluoro-phenyl]-4-ethyl-benzenesulfonamide] |
| > 3000 nM | 178 to 180 °C | COc1cc2nccc(Oc3ccc(NS(=O)(=O)c4cccc(-c5ccccc5)c4)cc3C)c2cc1OC [Example A75, Biphenyl-3-sulfonic acid [4-(6,7-dimethoxy-quinolin-4-yloxy)-3-methyl-phenyl]-amide] |
| > 10000 nM | 230 to 232 °C | COc1cc(C)c(C)cc1S(=O)(=O)Nc1ccc(Oc2cc(C)nc3c(C(F)(F)F)cccc23)c(F)c1 [Example C10, N-[3-Fluoro-4-(2-methyl-8-trifluoromethyl-quinolin-4-yloxy)-phenyl]-2-methoxy-4,5-dimethyl-benzenesulfonamide] |
| > 10000 nM | 255 to 257 °C | COc1cc2nccc(Oc3ccc(NS(=O)(=O)c4cc5ccccc5s4)c(C)c3)c2cc1OC [Example A94, Benzo[b]thiophene-2-sulfonic acid [4-(6,7-dimethoxy-quinolin-4-yloxy)-2-methyl-phenyl]-amide] |
| 3700 nM | 189 to 190 °C | COC(=O)c1sccc1S(=O)(=O)Nc1ccc(Oc2ccnc3cc(OC)c(OC)cc23)cc1F [Example A9, 3-[4-(6,7-Dimethoxy-quinolin-4-yloxy)-2-fluoro-phenylsulfamoyl]-thiophene-2-carboxylic acid methyl ester] |
| 2260 nM | 238 to 239 °C | COc1cc2nccc(Oc3ccc(NS(=O)(=O)c4cccc(OC(F)F)c4)c(F)c3)c2cc1OC [Example A15, 3-Difluoromethoxy-N-[4-(6,7-dimethoxy-quinolin-4-yloxy)-2-fluoro-phenyl]-benzenesulfonamide] |
| 46 nM | 110 to 112 °C | COc1cc2c(Oc3ccc(NS(=O)(=O)c4ccccc4C(F)(F)F)cc3F)ccnc2cc1OCCCN1CCC(C)CC1 [Example D17, N-(3-Fluoro-4-{6-methoxy-7-[3-(4-methyl-piperidin-1-yl)-propoxy]-quinolin-4-yloxy}-phenyl)-2-trifluoromethyl-benzenesulfonamide] |
| > 10000 nM | 212 to 213 °C | COc1cc2nccc(Oc3ccc(NS(=O)(=O)c4ccc(Br)c(Cl)c4)c(C)c3)c2cc1OC [Example A152, 4-Bromo-3-chloro-N-[4-(6,7-dimethoxy-quinolin-4-yloxy)-2-methyl-phenyl]-benzenesulfonamide] |
| > 1000 nM | 191 to 193 °C | COc1cc2nccc(Oc3ccc(NS(=O)(=O)c4csc5ccccc45)cc3F)c2cc1OC [Example A108, Benzo[b]thiophene-3-sulfonic acid [4-(6,7-dimethoxy-quinolin-4-yloxy)-3-fluoro-phenyl]-amide] |
| > 10000 nM | 179 to 180 °C | Cc1cc(Oc2ccc(NS(=O)(=O)c3ccc(F)cc3F)cc2)c2cc(F)ccc2n1 [Example B12, 2,4-Difluoro-N-[4-(6-fluoro-2-methyl-quinolin-4-yloxy)-phenyl]-benzenesulfonamide] |
| > 10000 nM | 191 to 193 °C | Cc1cc(Oc2ccc(NS(=O)(=O)c3ccc(Br)cc3C(F)(F)F)cc2)c2cc(F)ccc2n1 [Example B15, 4-Bromo-N-[4-(6-fluoro-2-methyl-quinolin-4-yloxy)-phenyl]-2-trifluoromethyl-benzenesulfonamide] |
| > 1000 nM | 204 to 206 °C | COc1cc2nccc(Oc3ccc(NS(=O)(=O)c4cccc(F)c4C)c(F)c3)c2cc1OC [Example A58, N-[4-(6,7-Dimethoxy-quinolin-4-yloxy)-2-fluoro-phenyl]-3-fluoro-2-methyl-benzenesulfonamide] |
| > 10000 nM | 118 to 120 °C | COc1cc2nccc(Oc3ccc(NS(=O)(=O)c4cccc5ccccc45)cc3C)c2cc1OC [Example A77, Naphthalene-1-sulfonic acid [4-(6,7-dimethoxy-quinolin-4-yloxy)-3-methyl-phenyl]-amide] |
| > 10000 nM | 189 to 190 °C | Cc1cc(Oc2ccc(NS(=O)(=O)C3CC3)c(F)c2)c2cc(F)ccc2n1 [Example B4, Cyclopropanesulfonic acid [2-fluoro-4-(6-fluoro-2-methyl-quinolin-4-yloxy)-phenyl]-amide] |
